Data as given in patent US8148373B2, “Compounds” (AstraZeneca AB, priority 2008, dated 2012).

Tests used:
[1] = target: T1, human muscarinic acetylcholine M3 receptor (M3-ACh) (Homo sapiens, UniProt P20309); assay: Muscarinic 3 Receptor Binding Assay, % inhibition specific binding at 1 μM; details: 1 μM compound, % inhibition specific [3H]-NMS binding
T1 construct: expressed in transfected cells; host or cells: CHO-K1 (Chinese Hamster Ovary) cell membranes
Protocol: The following experimental procedure was used to determine the M3% inhibition at 1 μM of the compounds of Examples 116-263.
Muscarinic 3 Receptor Binding Assay
The activity (% inhibition specific binding) of compounds -on the M3 receptor is determined by competition binding of [^3H]N-methyl scopolamine (NMS) to CHO-K1 (Chinese Hamster Ovary) cell membranes expressing the human muscarinic acetylcholine M3 receptor (M3-ACh) in a scintillation proximity assay (SPA) format.
SPA beads are precoated with membranes and then incubated at 2 mg of beads per well with 1 μM compound of the invention, [^3H]NMS at 0.1 nM, quarter Kd (experimentally determined dissociation constant) and assay buffer (20 mM HEPES pH 7.4 containing 5 mM MgCl2). The assay is conducted in a final volume of 200 μL, in the presence of 1% (v/v) dimethyl sulphoxide (DMSO). Total binding of [^3H]NMS is determined in the absence of competing compound and non-specific binding of [^3H]NMS is determined in the presence of 1 μM atropine. The plates are incubated for 16 hours at room temperature and then read on Wallac Microbeta™ using a normalised ^3H protocol. The compound activity at 1 defined as % inhibition specific [^3H]-NMS binding, is determined.

[2] = target: T2, Adrenergic β2 (H292 cells) (Homo sapiens, UniProt P07550); assay: Adrenergic β2 Mediated cAMP Production, single concentration 1 μM; assay type: cell-based; details: percentage of the maximum response generated by 1E-07M formoterol; for activation at 1 µM: NCI-H292, 1 μM compound, read-out: β2 (% effect at 1 μM)
T2 construct: endogenous in cells; host or cells: H292 cells
T2 sequence (P07550 whole entry): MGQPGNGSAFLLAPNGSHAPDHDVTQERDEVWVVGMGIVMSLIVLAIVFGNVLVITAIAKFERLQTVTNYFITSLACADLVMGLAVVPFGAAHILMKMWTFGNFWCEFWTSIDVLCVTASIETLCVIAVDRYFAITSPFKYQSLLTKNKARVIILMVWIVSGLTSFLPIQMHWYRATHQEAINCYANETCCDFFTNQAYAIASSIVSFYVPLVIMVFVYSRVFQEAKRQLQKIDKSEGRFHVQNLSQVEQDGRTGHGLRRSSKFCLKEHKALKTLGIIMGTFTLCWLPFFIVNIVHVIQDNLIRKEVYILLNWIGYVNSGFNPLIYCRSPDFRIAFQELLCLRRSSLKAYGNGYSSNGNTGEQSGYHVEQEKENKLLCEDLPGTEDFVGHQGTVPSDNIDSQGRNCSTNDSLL
Protocol: The following experimental procedure was used to measure the beta-2% effect at 1 μM for the compounds of Examples 116-263. Adrenergic β2 Mediated cAMP Production Cell Preparation
H292 cells are grown in 225 cm2 flasks incubator at 37° C., 5% CO2 in RPMI medium containing 10% (v/v) FBS (foetal bovine serum) and 2 mM L-glutamine.
Compounds were prepared by an initial first dilution into DMSO to give 1 mM stock concentration. This was followed by a 1 in 10 dilution of the stock concentration (10 μl stock compound+90 μl DMSO) to give 0.1 mM compound.
A compound addition plate was prepared by making a further 1 in 25 dilution in assay buffer (HBSS solution containing 10 mM HEPES pH7.4 and 5 mM glucose) containing 4% dimethylsulfoxide. The final compound concentration in assay is 1 μM.
Adherent H292 cells are removed from tissue culture flasks by treatment with Accutase™ cell detachment solution for 15 minutes. Flasks are incubated for 15 minutes in a humidified incubator at 37° C., 5% CO2. Detached cells are re-suspended in RPMI media (containing 10% (v/v) FBS and 2 mM L-glutamine) at 0.1×10^6 cells per mL. 10000 cells in 100 μL are added to each well of a tissue-culture-treated 96-well plate and the cells incubated overnight in a humidified incubator at 37° C., 5% CO2. The culture media is removed and cells are washed twice with 100 μL assay buffer and replaced with 50 μL assay buffer (HBSS solution containing 10 mM HEPES pH7.4 and 5 mM glucose). Cells are rested at room temperature for 20 minutes after which time 25 μL of rolipram (1.2 mM made up in assay buffer) is added. Cells are incubated with rolipram for 10 minutes after which time 25 μl test compounds are added and the cells are incubated for 60 minutes at room temperature. The final rolipram concentration in the assay is 300 μM and final vehicle concentration is 1% (v/v) dimethylsulphoxide. The reaction is stopped by removing supernatants, washing once with 100 μL assay buffer and replacing with 50 μL lysis buffer. The cell monolayer is frozen at −80° C. for 30 minutes (or overnight).
AlphaScreen™ cAMP Detection
The concentration of cAMP (cyclic adenosine monophosphate) in the cell lysate is determined using AlphaScreen™ methodology. The frozen cell plate is thawed for 20 minutes on a plate shaker then 10 μL of the cell lysate is transferred to a 96-well white plate. 40 μL of mixed AlphaScreen™ detection beads (containing equal volumes of donor beads (pre-incubated with biotinylated cAMP in the dark for 30 minutes) and acceptor beads is added to each well and the plate incubated at room temperature for 3 hours in the dark. The AlphaScreen™ signal is measured using an EnVision spectrophotometer (Perkin-Elmer Inc.) with the recommended manufacturer's settings. Concentration of cAMP produced per well were calculated with reference to the cAMP standard curve determined in the same experiment and expressed as a percentage of the maximum response generated by 1E-07M formoterol.

T1 sequence (P20309 whole entry): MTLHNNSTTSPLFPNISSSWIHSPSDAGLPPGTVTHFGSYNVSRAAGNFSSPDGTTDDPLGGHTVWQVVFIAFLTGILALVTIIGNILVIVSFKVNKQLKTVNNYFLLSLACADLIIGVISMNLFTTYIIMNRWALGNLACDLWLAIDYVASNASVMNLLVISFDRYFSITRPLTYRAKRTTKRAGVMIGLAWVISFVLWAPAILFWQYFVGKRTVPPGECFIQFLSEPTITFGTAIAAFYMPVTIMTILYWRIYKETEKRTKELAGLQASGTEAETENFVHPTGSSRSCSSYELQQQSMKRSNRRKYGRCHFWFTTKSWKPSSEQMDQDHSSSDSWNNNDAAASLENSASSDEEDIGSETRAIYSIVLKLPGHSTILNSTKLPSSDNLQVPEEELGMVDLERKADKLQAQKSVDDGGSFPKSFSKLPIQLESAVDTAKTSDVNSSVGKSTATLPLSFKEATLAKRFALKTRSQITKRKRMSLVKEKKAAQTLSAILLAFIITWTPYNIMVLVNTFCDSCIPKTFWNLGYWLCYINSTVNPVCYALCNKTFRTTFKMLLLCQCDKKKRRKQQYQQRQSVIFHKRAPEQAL

| SMILES | inhibition at 1 µM [1] | activation at 1 µM [2] | M3 (% inhibition at 1 μM) [1] | β2 (% effect at 1 μM) ([2]; 1 μM compound) |
| --- | --- | --- | --- | --- |
| O=C(Cc1cccs1)N1CCOC2(CCN(CCOc3ccc(CNC[C@H](O)c4ccc(O)c5[nH]c(=O)sc45)cc3)CC2)C1 [Example 226, (R)-4-hydroxy-7-(1-hydroxy-2-(4-(2-(4-(2-(thiophen-2-yl)acetyl)-1-oxa-4,9-diazaspiro[5.5]undecan-9-yl)ethoxy)benzylamino)ethyl) benzo[d]thiazol-2(3H)-one] | 53% | 76% | – | – |
| Cc1ccn(CC(=O)N2CCOC3(CCN(Cc4cc(F)cc(CCNC[C@H](O)c5ccc(O)c6[nH]c(=O)sc56)c4)CC3)C2)n1 [Example 153, (R)-7-(2-(3-fluoro-5-((4-(2-(3-methyl-1H-pyrazol-1-yl)acetyl)-1-oxa-4,9-diazaspiro[5.5]undecan-9-yl)methyl)phenethylamino)-1-hydroxyethyl)-4-hydroxybenzo[d]thiazol-2(3H)-one] | 67% | 98% | – | – |
| Cc1ccsc1C(=O)N1CCOC2(CCN(CCOc3ccc(CNC[C@H](O)c4ccc(O)c5[nH]c(=O)sc45)cc3)CC2)C1 [Example 232, (R)-4-hydroxy-7-(1-hydroxy-2-(4-(2-(4-(3-methylthiophene-2-carbonyl)-1-oxa-4,9-diazaspiro[5.5]undecan-9-yl)ethoxy)benzylamino)ethyl) benzo[d]thiazol-2(3H)-one] | 56% | 83% | – | – |
| Cn1cccc1C(=O)N1CCOC2(CCN(CCOc3ccc(CNC[C@H](O)c4ccc(O)c5[nH]c(=O)sc45)cc3)CC2)C1 [Example 225, (R)-4-hydroxy-7-(1-hydroxy-2-(4-(2-(4-(1-methyl-1H-pyrrole-2-carbonyl)-1-oxa-4,9-diazaspiro[5.5]undecan-9-yl)ethoxy)benzylamino)ethyl) benzo[d]thiazol-2(3H)-one] | 60% | 74% | – | – |
| O=C(c1c[nH]c2ccccc12)N1CCOC2(CCN(Cc3cc(F)cc(CCNC[C@H](O)c4ccc(O)c5[nH]c(=O)sc45)c3)CC2)C1 [Example 137, (R)-7-(2-(3-((4-(1H-indole-3-carbonyl)-1-oxa-4,9-diazaspiro[5.5]undecan-9-yl)methyl)-5-fluorophenethylamino)-1-hydroxyethyl)-4-hydroxybenzo[d]thiazol-2(3H)-one] | 13% | 112% | – | – |
| O=C(CCc1cccs1)N1CCOC2(CCN(CCCCCCCCCNC[C@H](O)c3ccc(O)c4[nH]c(=O)sc34)CC2)C1 [Example 207, (R)-4-hydroxy-7-(1-hydroxy-2-(9-(4-(3-(thiophen-2-yl)propanoyl)-1-oxa-4,9-diazaspiro[5.5]undecan-9-yl)nonylamino)ethyl)benzo[d]thiazol-2(3H)-one] | 94% | 101% | – | – |
| O=C(COc1ccccc1)N1CCOC2(CCN(CCCCCCCCCNC[C@H](O)c3ccc(O)c4[nH]c(=O)sc34)CC2)C1 [Example 199, (R)-4-hydroxy-7-(1-hydroxy-2-(9-(4-(2-phenoxyacetyl)-1-oxa-4,9-diazaspiro[5.5]undecan-9-yl)nonylamino)ethyl)benzo[d]thiazol-2(3H)-one] | 91% | 91% | – | – |
| Cc1nc2cc(C(=O)N3CCOC4(CCN(CCOc5ccc(CNC[C@H](O)c6ccc(O)c7[nH]c(=O)sc67)cc5)CC4)C3)ccc2s1 [Example 256, (R)-4-hydroxy-7-(1-hydroxy-2-(4-(2-(4-(2-methylbenzo[d]thiazole-5-carbonyl)-1-oxa-4,9-diazaspiro[5.5]undecan-9-yl)ethoxy)benzylamino)ethyl) benzo[d]thiazol-2(3H)-one] | 38% | 76% | – | – |
| Cc1nc2cc(C(=O)N3CCOC4(CCN(Cc5cc(F)cc(CCNC[C@H](O)c6ccc(O)c7[nH]c(=O)sc67)c5)CC4)C3)ccc2n1C [Example 162, (R)-7-(2-(3-((4-(1,2-dimethyl-1H-benzo[d]imidazole-5-carbonyl)-1-oxa-4,9-diazaspiro[5.5]undecan-9-yl)methyl)-5-fluorophenethylamino)-1-hydroxyethyl)-4-hydroxybenzo[d]thiazol-2(3H)-one] | 8% | 91% | – | – |
| Cc1sccc1C(=O)N1CCOC2(CCN(Cc3cc(F)cc(CCNC[C@H](O)c4ccc(O)c5[nH]c(=O)sc45)c3)CC2)C1 [Example 147, (R)-7-(2-(3-fluoro-5-((4-(2-methylthiophene-3-carbonyl)-1-oxa 4,9-diazaspiro[5.5]undecan-9-yl)methyl)phenethylamino)-1-hydroxyethyl)-4-hydroxybenzo[d]thiazol-2(3H)-one] | 66% | 102% | – | – |
| Cc1cc(C(=O)N2CCOC3(CCN(CCOc4ccc(CNC[C@H](O)c5ccc(O)c6[nH]c(=O)sc56)cc4)CC3)C2)oc1C [Example 236, (R)-7-(2-(4-(2-(4-(4,5-dimethylfuran-2-carbonyl)-1-oxa-4,9-diazaspiro[5.5]undecan-9-yl)ethoxy)benzylamino)-1-hydroxyethyl)-4-hydroxy-benzo[d]thiazol-2(3H)-one] | 30% | 73% | – | – |
| Cc1cccc(C(=O)N2CCOC3(CCN(CCCCCCCCCNC[C@H](O)c4ccc(O)c5[nH]c(=O)sc45)CC3)C2)n1 [Example 196, (R)-4-hydroxy-7-(1-hydroxy-2-(9-(4-(6-methylpicolinoyl)-1-oxa-4,9-diazaspiro[5.5]undecan-9-yl)nonylamino)ethyl)benzo[d]thiazol-2(3H)-one] | 95% | 89% | – | – |
| O=C(COc1ccc(O)cc1)N1CCOC2(CCN(Cc3cc(F)cc(CCNC[C@H](O)c4ccc(O)c5[nH]c(=O)sc45)c3)CC2)C1 [Example 181, (R)-7-(2-(3-fluoro-5-((4-(2-(4-hydroxyphenoxy)acetyl)-1-oxa-4,9-diazaspiro[5.5]undecan-9-yl)methyl)phenethylamino)-1-hydroxyethyl)-4-hydroxybenzol[d]thiazol-2(3H)-one] | – | – | 10% | 86% |
| O=C([C@@H]1CCCO1)N1CCOC2(CCN(Cc3cc(F)cc(CCNC[C@H](O)c4ccc(O)c5[nH]c(=O)sc45)c3)CC2)C1 [Example 158, 7-((R)-2-(3-fluoro-5-((4-((S)-tetrahydrofuran-2-carbonyl)-1-oxa-4,9-diazaspiro[5.5]undecan-9-yl)methyl)phenethylamino)-1-hydroxyethyl)-4-hydroxybenzo[d]thiazol-2(3H)-one] | 72% | 95% | – | – |
| O=C(Cc1ccsc1)N1CCOC2(CCN(CCCCCCCCCNC[C@H](O)c3ccc(O)c4[nH]c(=O)sc34)CC2)C1 [Example 192, (R)-4-hydroxy-7-(1-hydroxy-2-(9-(4-(2-(thiophen-3-yl)acetyl)-1-oxa-4,9-diazaspiro[5.5]undecan-9-yl)nonylamino)ethyl)benzo[d]thiazol-2(3H)-one] | 96% | 88% | – | – |
